PMC7488503 (Acta Pharmaceutica Sinica. B, 2020)

Tests used:
VEGFR2 = VEGFR2 (Homo sapiens, UniProt P35968); test: Z′-LYTE kinase inhibition assay
FGFR1 = FGFR1 (Homo sapiens, UniProt P11362); test: Z′-LYTE kinase inhibition assay
PDGFRβ = PDGFRβ (Homo sapiens, UniProt P09619); test: Z′-LYTE kinase inhibition assay
[1] = test system: NCI-H520 lung cancer xenograft; test: NCI-H520 lung cancer subcutaneous xenograft model; type: in vivo, Balb/c nude mice
[2] = test system: A549 lung cancer xenograft; test: A549 lung cancer subcutaneous xenograft model; type: in vivo, Balb/c nude mice
HBVPs = test: PDGF-BB-induced HBVPs proliferation; type: cell-based; conditions: Homo sapiens, 48 h, read-out: IC50 HBVPs
HUVECs = test: VEGF-induced HUVECs proliferation; type: cell-based; conditions: Homo sapiens, HUVEC, 72 h, read-out: IC50 HUVECs

Chain of FGFR1 (P11362 22-822): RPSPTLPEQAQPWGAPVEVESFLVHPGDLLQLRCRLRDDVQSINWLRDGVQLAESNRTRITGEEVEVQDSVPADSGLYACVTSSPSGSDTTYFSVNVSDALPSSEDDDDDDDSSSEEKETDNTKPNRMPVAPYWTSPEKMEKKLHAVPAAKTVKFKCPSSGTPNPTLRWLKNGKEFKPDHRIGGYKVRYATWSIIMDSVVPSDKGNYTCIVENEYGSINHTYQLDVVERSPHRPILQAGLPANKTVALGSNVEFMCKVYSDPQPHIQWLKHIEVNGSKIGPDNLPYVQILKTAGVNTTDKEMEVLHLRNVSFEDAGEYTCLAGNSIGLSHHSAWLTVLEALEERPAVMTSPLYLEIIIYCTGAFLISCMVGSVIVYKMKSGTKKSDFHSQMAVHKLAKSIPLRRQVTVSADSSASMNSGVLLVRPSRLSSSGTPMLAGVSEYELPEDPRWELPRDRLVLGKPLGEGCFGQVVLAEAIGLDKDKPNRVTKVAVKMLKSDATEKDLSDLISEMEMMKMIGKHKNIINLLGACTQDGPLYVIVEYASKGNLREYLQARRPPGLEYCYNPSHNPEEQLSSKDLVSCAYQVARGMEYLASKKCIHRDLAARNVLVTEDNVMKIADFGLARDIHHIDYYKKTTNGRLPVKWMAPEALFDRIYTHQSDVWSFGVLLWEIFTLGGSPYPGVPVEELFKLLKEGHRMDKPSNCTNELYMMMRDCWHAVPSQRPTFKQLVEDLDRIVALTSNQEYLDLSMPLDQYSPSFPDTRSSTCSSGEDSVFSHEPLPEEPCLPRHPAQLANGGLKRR
Chain of PDGFRβ (P09619 33-1106): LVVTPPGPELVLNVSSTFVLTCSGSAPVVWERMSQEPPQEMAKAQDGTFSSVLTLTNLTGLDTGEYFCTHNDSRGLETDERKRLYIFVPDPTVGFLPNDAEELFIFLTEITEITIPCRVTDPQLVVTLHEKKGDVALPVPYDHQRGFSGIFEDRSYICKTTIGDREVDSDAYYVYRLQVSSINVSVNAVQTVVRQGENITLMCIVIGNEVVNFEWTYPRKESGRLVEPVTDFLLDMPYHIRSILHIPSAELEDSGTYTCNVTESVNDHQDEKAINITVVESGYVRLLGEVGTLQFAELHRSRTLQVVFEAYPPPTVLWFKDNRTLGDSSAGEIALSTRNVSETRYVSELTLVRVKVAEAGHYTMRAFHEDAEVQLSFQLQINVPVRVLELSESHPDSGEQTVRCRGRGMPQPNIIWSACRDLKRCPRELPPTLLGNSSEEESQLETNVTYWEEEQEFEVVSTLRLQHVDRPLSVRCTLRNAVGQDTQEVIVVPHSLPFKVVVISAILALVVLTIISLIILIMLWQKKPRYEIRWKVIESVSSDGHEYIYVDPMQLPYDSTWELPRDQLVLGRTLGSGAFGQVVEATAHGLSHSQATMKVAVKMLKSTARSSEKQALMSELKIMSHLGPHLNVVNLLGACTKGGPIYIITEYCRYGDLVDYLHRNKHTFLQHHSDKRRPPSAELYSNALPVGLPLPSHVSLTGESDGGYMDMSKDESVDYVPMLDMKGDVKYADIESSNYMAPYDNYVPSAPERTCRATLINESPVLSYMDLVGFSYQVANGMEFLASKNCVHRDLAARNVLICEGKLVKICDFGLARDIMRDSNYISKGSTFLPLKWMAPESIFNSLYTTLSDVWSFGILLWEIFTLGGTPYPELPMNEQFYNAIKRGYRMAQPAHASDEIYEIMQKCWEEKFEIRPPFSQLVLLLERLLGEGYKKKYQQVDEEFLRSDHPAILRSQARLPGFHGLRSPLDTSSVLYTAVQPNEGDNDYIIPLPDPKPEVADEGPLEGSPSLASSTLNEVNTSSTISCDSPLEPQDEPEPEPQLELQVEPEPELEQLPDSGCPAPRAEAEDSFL
Chain of VEGFR2 (P35968 20-1356): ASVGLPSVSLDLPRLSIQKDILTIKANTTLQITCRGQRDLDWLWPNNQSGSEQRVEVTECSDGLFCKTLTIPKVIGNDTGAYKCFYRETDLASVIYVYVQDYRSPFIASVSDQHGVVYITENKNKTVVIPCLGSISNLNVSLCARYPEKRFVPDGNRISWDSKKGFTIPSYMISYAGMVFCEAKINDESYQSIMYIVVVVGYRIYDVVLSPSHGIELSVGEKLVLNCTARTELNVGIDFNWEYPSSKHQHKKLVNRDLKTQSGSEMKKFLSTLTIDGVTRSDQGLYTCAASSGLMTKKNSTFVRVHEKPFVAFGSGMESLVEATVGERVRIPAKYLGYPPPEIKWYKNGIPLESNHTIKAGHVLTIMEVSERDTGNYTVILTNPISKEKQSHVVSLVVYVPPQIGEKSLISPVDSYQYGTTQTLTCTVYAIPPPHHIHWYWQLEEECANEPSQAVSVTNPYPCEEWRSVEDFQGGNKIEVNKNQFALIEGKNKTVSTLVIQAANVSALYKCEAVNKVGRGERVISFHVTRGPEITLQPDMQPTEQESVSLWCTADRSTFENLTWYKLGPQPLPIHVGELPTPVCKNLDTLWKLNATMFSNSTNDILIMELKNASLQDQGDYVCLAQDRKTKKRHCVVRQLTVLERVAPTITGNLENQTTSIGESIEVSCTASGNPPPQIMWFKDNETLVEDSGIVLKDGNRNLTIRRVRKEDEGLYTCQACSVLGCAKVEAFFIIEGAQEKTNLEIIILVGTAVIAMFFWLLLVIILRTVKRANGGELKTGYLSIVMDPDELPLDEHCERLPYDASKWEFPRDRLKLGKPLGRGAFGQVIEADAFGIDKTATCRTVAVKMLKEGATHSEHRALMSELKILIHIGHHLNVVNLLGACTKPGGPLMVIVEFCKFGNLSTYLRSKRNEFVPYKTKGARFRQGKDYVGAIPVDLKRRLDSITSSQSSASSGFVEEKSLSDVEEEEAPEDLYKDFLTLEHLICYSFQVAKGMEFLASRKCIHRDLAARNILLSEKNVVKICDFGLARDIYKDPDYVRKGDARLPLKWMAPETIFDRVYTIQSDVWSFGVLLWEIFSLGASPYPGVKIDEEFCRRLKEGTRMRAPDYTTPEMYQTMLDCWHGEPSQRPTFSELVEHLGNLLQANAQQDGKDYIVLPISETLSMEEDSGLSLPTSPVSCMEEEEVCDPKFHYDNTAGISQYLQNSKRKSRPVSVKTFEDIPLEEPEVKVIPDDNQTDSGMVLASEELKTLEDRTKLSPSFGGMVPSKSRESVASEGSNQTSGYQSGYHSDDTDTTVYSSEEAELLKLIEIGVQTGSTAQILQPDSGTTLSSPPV

| IC50 (VEGFR2) | IC50 (FGFR1) | IC50 (PDGFRβ) | SMILES | T/C ([1]; 100 mg/kg p.o. QD, Day 21) | TGI ([1]; 100 mg/kg p.o. QD, Day 21) | Tumor volume at Day 21 ([1]; 100 mg/kg p.o. QD, mean ± SEM) | area of CD31 (tumor micro-vessel density, IHC) ([1]; 100 mg/kg, mean ± SEM, n = 3, control 4.96 ± 0.62) | T/C ([2]; 100 mg/kg p.o. QD, Day 21) | TGI ([2]; 100 mg/kg p.o. QD, Day 21) | Tumor volume at Day 21 ([2]; 100 mg/kg p.o. QD, mean ± SEM) | area of CD31 (tumor micro-vessel density, IHC) ([2]; 100 mg/kg, mean ± SEM, n = 3, control 3.38 ± 0.49) | IC50 (HBVPs) | IC50 (HUVECs) |
| --- | --- | --- | --- | --- | --- | --- | --- | --- | --- | --- | --- | --- | --- |
| 0.227 µM | 0.777 µM | 0.41 µM | O=C1NCOc2cc3nccc(Oc4ccc(NC(=S)NC5CC5)c(Cl)c4)c3cc21 [B3] | – | – | – | – | – | – | – | – | – | – |
| 0.0327 µM | 0.436 µM | 0.0772 µM | COc1cc2nccc(Oc3ccc(NC(N)=S)c(Cl)c3)c2cc1C(N)=O [C1] | – | – | – | – | – | – | – | – | – | – |
| – | – | – | COC(=O)c1ccc2c(c1)NC(=O)/C2=C(\Nc1ccc(N(C)C(=O)CN2CCN(C)CC2)cc1)c1ccccc1 [Nintedanib, reference compound] | 45% | 62% | 585 ± 101 mm^3 | 1.99 ± 0.04 | 26% | 80% | 391 ± 43 mm^3 | 1.05 ± 0.33 | 1.67 µM | 0.041 µM |
